According to ChEMBL document CHEMBL2073945, “Contribution of cholesterol and phospholipids to inhibitory effect of dimethyl-beta-cyclodextrin on efflux function of P-glycoprotein and multidrug resistance-associated protein 2 in vinblastine-resistant Caco-2 cell monolayers” (Pharm Res, 2004):

Target: ATP-dependent translocase ABCB1 (Homo sapiens, UniProt P08183)
Assay: TP_TRANSPORTER: transepithelial transport of Rhodamine 123 (basal to apical) in Caco-2R cells
Type: functional, cell-based

Chain of ATP-dependent translocase ABCB1 (P08183 whole entry): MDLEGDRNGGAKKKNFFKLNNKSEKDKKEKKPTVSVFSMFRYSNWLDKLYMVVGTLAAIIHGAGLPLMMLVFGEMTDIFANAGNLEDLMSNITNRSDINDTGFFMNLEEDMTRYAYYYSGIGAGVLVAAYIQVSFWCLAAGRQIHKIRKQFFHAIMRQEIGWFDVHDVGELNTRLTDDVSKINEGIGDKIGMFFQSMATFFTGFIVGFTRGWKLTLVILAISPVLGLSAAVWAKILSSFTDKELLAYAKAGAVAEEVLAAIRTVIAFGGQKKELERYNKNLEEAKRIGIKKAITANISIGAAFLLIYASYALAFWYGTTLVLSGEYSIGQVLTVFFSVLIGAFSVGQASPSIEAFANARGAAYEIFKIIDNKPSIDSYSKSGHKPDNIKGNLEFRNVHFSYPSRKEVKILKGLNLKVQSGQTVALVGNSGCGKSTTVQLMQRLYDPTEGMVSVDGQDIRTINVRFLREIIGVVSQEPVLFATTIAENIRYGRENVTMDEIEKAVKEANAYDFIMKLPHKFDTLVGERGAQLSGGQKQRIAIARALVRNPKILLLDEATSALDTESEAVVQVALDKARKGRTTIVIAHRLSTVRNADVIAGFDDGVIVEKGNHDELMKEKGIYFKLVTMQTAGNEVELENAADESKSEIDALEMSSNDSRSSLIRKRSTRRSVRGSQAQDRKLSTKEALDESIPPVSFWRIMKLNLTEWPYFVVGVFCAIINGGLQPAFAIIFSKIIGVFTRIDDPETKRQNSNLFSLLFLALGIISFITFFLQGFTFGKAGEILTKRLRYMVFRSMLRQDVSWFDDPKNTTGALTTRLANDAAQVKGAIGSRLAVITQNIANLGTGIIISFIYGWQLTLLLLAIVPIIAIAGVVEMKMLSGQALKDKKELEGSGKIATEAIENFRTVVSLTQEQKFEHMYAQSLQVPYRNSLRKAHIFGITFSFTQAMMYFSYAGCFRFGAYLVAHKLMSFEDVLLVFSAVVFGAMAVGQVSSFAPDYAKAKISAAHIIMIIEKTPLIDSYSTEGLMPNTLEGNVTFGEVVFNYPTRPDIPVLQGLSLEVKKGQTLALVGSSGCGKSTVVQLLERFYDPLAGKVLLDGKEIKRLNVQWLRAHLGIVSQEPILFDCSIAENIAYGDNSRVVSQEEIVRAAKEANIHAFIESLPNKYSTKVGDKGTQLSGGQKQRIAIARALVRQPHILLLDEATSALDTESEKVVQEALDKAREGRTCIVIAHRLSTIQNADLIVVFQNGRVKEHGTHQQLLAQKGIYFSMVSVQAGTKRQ

Activity | SMILES
is not an inhibitor [-] | CC(O)COC[C@H]1O[C@@H]2O[C@H]3[C@H](O)[C@@H](O)[C@@H](O[C@H]4[C@H](O)[C@@H](O)[C@@H](O[C@H]5[C@H](O)[C@@H](O)[C@@H](O[C@H]6[C@H](O)[C@@H](O)[C@@H](O[C@H]7[C@H](O)[C@@H](O)[C@@H](O[C@H]8[C@H](O)[C@@H](O)[C@@H](O[C@H]1[C@H](O)[C@H]2O)O[C@@H]8COCC(C)O)O[C@@H]7COCC(C)O)O[C@@H]6COCC(C)O)O[C@@H]5COCC(C)O)O[C@@H]4COCC(C)O)O[C@@H]3COCC(C)O (stereo partly drawn) [2-HYDROXYPROPYL-BETA-CYCLODEXTRIN]
inhibitor [+] | COC[C@H]1O[C@@H]2O[C@H]3[C@H](O)[C@@H](OC)[C@@H](O[C@H]4[C@H](O)[C@@H](OC)[C@@H](O[C@H]5[C@H](O)[C@@H](OC)[C@@H](O[C@H]6[C@H](O)[C@@H](OC)[C@@H](O[C@H]7[C@H](O)[C@@H](OC)[C@@H](O[C@H]8[C@H](O)[C@@H](OC)[C@@H](O[C@H]1[C@H](O)[C@H]2OC)O[C@@H]8COC)O[C@@H]7COC)O[C@@H]6COC)O[C@@H]5COC)O[C@@H]4COC)O[C@@H]3COC
is not an inhibitor [-] | CCCC(OC(CCC)S(=O)(=O)O)S(=O)(=O)O.OC[C@H]1O[C@@H]2O[C@H]3[C@H](O)[C@@H](O)[C@@H](O[C@H]4[C@H](O)[C@@H](O)[C@@H](O[C@H]5[C@H](O)[C@@H](O)[C@@H](O[C@H]6[C@H](O)[C@@H](O)[C@@H](O[C@H]7[C@H](O)[C@@H](O)[C@@H](O[C@H]8[C@H](O)[C@@H](O)[C@@H](O[C@H]1[C@H](O)[C@H]2O)O[C@@H]8CO)O[C@@H]7CO)O[C@@H]6CO)O[C@@H]5CO)O[C@@H]4CO)O[C@@H]3CO
is not an inhibitor [-] | COC[C@@H]1O[C@H]2O[C@@H]3[C@@H](O)[C@H](O)[C@H](O[C@@H]4[C@@H](O)[C@H](O)[C@H](O[C@H]5[C@H](OC)[C@@H](O)[C@@H](O[C@@H]6[C@@H](O)[C@H](O)[C@H](O[C@@H]7[C@@H](O)[C@H](O)[C@H](O[C@@H]8[C@@H](O)[C@H](O)[C@H](O[C@@H]1[C@@H](O)[C@@H]2O)O[C@H]8COC)O[C@H]7COC)O[C@H]6COC)O[C@@H]5COC)O[C@H]4COC)O[C@H]3COC
